From ChEMBL document CHEMBL1201862, “PubChem BioAssay data set” (2004)
The source made the active and inactive calls.

How the values were obtained:
Staphylococcus aureus = experiment: Inhibitors of Bacterial Quorum Sensing Structure Activity Relationship (SAR) Analysis: Dose Response Assay. [Related pubchem assays: 700, 527 ]; format: functional, organism-based
[1] = cytotoxicity toward HCT116 cells – cell-based, CellTiter-Glo luminescence, IC50, dose response (AID 1117332); format: functional; settings: HCT-116
Aurora kinase B = Aurora kinase B (Homo sapiens, UniProt Q96GD4); format: functional
Sequence of Aurora kinase B (Q96GD4 whole entry): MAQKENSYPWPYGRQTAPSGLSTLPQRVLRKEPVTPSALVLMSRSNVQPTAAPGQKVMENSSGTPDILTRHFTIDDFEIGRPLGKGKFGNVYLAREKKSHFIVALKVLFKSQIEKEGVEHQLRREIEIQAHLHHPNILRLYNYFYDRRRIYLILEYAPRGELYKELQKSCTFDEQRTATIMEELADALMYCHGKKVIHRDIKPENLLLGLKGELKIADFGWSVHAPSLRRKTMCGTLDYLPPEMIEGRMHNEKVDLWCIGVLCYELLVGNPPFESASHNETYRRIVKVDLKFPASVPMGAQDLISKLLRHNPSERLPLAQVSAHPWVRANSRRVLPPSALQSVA

[2] = molecular target: Insulin-like growth factor 1 receptor (Homo sapiens, UniProt P08069); experiment: Navigating the Kinome. Panel member name: IGF1R; format: functional
[3] = molecular target: Serine/threonine-protein kinase PAK 1 (Homo sapiens, UniProt Q13153); format: functional
[4] = molecular target: Tyrosine-protein kinase Fyn (Homo sapiens, UniProt P06241); format: functional
[5] = molecular target: Casein kinase I isoform alpha (Homo sapiens, UniProt P48729); format: functional
Sequence of Casein kinase I isoform alpha (P48729 whole entry, canonical isoform): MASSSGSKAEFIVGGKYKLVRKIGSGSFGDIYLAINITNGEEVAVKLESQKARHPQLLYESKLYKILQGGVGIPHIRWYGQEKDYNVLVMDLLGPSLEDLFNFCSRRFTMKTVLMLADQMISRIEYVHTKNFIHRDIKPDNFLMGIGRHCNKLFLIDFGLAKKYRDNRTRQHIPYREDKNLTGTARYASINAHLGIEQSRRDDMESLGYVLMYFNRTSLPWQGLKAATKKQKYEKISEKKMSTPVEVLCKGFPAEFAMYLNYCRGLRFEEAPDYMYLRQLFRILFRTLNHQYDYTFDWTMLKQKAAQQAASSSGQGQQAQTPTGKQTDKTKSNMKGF

[6] = molecular target: Casein kinase II subunit alpha (Homo sapiens, UniProt P68400); format: functional
[7] = molecular target: Dual specificity tyrosine-phosphorylation-regulated kinase 1B (Homo sapiens, UniProt Q9Y463); experiment: Navigating the Kinome. Panel member name: DYRK1B; format: functional
[8] = molecular target: Serine/threonine-protein kinase TBK1 (Homo sapiens, UniProt Q9UHD2); experiment: Navigating the Kinome. Panel member name: TBK1; format: functional
[9] = molecular target: Dual specificity protein kinase CLK4 (Homo sapiens, UniProt Q9HAZ1); format: functional
[10] = molecular target: Testis-specific serine/threonine-protein kinase 2 (Homo sapiens, UniProt Q96PF2); format: functional;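 also: part of the Navigating the Kinome panel, target entry STK22B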
[11] = molecular target: MAP kinase-interacting serine/threonine-protein kinase 2 (Homo sapiens, UniProt Q9HBH9); format: functional
[12] = molecular target: Calcium/calmodulin-dependent protein kinase type II subunit beta (Homo sapiens, UniProt Q13554); format: functional
Sequence of Calcium/calmodulin-dependent protein kinase type II subunit beta (Q13554 whole entry): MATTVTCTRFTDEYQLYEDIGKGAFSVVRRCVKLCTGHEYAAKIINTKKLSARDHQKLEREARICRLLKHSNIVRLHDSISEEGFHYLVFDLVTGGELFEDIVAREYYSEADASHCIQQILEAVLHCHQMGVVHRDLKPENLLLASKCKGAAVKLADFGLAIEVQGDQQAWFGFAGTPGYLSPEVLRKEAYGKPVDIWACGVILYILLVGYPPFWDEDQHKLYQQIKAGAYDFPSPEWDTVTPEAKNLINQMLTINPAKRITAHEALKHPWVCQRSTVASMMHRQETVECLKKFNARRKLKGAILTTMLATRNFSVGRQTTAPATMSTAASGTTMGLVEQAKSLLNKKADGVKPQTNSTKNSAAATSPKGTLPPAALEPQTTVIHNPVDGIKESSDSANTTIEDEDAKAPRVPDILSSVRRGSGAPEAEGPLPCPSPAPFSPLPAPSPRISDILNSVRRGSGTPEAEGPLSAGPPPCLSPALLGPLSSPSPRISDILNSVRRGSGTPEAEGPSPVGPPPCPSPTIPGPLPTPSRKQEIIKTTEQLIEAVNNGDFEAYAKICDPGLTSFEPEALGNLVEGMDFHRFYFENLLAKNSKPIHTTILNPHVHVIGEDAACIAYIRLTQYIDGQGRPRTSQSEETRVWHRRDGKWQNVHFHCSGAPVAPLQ

[13] = molecular target: Vascular endothelial growth factor receptor 2 (Homo sapiens, UniProt P35968); format: functional
[14] = molecular target: Phosphorylase b kinase gamma catalytic chain, liver/testis isoform (Homo sapiens, UniProt P15735); format: functional;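 also: PHKG2 measured as one member of a kinome-wide kinase panel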
[15] = molecular target: Vascular endothelial growth factor receptor 1 (Homo sapiens, UniProt P17948); format: functional;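 also: measured within a kinome-wide profiling panel, FLT1 as the panel member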
[16] = molecular target: Serine/threonine-protein kinase D2 (Homo sapiens, UniProt Q9BZL6); format: functional;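 also: measured against PRKD2 as one member of a kinome-wide kinase profiling panel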
Sequence of Serine/threonine-protein kinase D2 (Q9BZL6 whole entry): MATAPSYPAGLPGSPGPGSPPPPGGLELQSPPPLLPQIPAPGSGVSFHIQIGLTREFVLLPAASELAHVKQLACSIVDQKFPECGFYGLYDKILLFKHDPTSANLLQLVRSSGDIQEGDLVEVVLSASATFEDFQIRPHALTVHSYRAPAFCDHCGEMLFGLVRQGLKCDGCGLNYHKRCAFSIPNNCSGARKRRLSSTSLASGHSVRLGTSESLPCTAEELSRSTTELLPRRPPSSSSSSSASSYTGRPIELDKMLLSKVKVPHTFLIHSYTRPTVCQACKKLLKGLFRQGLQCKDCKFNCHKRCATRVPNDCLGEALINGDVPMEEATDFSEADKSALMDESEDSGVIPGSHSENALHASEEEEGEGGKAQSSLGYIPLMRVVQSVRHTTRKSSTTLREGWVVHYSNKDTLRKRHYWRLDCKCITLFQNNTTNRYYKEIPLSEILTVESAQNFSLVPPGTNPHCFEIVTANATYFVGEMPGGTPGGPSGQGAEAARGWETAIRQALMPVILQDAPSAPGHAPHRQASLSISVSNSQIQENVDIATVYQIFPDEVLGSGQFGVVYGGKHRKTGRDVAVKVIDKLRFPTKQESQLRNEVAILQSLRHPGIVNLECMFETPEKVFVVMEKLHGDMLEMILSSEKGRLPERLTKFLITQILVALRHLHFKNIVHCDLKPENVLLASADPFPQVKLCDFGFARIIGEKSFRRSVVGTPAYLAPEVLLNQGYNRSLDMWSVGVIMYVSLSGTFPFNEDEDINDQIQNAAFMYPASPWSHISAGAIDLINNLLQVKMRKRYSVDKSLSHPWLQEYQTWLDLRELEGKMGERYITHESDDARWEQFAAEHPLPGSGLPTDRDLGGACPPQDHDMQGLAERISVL

[17] = molecular target: ALK tyrosine kinase receptor (Homo sapiens, UniProt Q9UM73); format: functional;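 also: ALK tested as one member of a kinase panel screen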
[18] = molecular target: Fibroblast growth factor receptor 3 (Homo sapiens, UniProt P22607); format: functional
Sequence of Fibroblast growth factor receptor 3 (P22607 whole entry): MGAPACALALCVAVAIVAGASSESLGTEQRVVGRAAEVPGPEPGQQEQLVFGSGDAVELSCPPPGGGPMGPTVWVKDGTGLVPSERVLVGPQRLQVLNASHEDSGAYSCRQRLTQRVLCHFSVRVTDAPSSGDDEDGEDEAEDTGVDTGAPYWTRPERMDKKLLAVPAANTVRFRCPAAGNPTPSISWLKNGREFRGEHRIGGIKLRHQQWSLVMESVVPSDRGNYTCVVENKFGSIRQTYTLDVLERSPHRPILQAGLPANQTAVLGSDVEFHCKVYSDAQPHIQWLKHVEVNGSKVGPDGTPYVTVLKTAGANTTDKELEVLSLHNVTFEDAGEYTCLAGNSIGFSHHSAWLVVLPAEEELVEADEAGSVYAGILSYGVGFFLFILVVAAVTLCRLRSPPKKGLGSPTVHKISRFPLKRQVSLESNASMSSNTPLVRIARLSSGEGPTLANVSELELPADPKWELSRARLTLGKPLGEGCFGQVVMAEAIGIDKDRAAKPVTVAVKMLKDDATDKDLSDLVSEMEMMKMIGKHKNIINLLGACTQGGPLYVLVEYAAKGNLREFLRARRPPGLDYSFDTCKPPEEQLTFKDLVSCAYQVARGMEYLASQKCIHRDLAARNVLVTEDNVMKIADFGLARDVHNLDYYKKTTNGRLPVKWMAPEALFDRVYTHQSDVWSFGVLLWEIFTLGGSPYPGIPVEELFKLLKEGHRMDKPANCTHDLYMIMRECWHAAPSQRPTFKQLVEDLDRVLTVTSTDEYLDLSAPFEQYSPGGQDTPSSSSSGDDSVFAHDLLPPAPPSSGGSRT

[19] = molecular target: MAP/microtubule affinity-regulating kinase 3 (Homo sapiens, UniProt P27448); format: functional;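 also: MARK3 affinity measured as one member of a kinome panel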
Sequence of MAP/microtubule affinity-regulating kinase 3 (P27448 whole entry): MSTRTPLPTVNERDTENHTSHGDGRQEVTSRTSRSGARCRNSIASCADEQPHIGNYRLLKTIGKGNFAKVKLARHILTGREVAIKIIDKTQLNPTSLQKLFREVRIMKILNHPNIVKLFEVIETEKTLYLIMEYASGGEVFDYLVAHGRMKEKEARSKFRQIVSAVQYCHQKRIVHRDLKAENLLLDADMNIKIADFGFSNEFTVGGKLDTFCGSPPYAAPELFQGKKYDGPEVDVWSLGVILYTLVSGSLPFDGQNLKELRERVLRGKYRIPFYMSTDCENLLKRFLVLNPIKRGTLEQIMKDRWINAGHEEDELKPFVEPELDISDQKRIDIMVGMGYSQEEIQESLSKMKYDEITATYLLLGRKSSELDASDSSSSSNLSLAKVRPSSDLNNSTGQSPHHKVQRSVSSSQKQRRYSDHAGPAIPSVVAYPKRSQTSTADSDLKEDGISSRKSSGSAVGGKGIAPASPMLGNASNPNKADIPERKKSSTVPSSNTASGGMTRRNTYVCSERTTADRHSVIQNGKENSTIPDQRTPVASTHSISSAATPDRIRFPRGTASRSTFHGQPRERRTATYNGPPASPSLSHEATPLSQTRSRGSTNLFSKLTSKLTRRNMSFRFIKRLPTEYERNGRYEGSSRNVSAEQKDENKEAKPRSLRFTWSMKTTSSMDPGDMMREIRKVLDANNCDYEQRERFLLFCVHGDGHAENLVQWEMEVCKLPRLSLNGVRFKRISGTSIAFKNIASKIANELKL

[20] = molecular target: Calcium/calmodulin-dependent protein kinase type II subunit alpha (Homo sapiens, UniProt Q9UQM7); experiment: Navigating the Kinome. Panel member name: CAMK2A; format: functional
Sequence of Calcium/calmodulin-dependent protein kinase type II subunit alpha (Q9UQM7 whole entry): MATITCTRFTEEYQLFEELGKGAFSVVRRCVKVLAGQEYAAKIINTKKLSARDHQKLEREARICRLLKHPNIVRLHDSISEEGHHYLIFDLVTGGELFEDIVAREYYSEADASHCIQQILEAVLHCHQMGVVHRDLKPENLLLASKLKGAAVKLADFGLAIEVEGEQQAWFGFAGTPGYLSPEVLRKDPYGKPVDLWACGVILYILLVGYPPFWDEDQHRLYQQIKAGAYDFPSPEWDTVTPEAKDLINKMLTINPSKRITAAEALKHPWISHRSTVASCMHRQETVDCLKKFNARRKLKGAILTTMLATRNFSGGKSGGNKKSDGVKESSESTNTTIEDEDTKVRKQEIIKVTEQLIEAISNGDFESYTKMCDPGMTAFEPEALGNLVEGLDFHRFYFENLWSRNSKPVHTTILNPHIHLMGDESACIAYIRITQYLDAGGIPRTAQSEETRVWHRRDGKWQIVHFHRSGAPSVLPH

[21] = molecular target: Ribosomal protein S6 kinase alpha-5 (Homo sapiens, UniProt O75582); format: functional
[22] = molecular target: Mast/stem cell growth factor receptor Kit (Homo sapiens, UniProt P10721); format: functional;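 also: KIT entry within a kinase panel assay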
[23] = molecular target: Proto-oncogene tyrosine-protein kinase Src (Homo sapiens, UniProt P12931); format: functional;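 also: SRC entry within a kinome-wide kinase profiling panel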
[24] = molecular target: Protein kinase C gamma type (Homo sapiens, UniProt P05129); format: functional
HEK293 [25] = experiment: cells; format: functional, cell-based; settings: Homo sapiens
HEK293 [26] = experiment: cells; format: functional, cell-based; settings: Homo sapiens; remark: listed apart in the source
[27] = molecular target: T1, Apoptotic protease-activating factor 1 (Homo sapiens, UniProt O14727); format: functional
T1 sequence (O14727 whole entry): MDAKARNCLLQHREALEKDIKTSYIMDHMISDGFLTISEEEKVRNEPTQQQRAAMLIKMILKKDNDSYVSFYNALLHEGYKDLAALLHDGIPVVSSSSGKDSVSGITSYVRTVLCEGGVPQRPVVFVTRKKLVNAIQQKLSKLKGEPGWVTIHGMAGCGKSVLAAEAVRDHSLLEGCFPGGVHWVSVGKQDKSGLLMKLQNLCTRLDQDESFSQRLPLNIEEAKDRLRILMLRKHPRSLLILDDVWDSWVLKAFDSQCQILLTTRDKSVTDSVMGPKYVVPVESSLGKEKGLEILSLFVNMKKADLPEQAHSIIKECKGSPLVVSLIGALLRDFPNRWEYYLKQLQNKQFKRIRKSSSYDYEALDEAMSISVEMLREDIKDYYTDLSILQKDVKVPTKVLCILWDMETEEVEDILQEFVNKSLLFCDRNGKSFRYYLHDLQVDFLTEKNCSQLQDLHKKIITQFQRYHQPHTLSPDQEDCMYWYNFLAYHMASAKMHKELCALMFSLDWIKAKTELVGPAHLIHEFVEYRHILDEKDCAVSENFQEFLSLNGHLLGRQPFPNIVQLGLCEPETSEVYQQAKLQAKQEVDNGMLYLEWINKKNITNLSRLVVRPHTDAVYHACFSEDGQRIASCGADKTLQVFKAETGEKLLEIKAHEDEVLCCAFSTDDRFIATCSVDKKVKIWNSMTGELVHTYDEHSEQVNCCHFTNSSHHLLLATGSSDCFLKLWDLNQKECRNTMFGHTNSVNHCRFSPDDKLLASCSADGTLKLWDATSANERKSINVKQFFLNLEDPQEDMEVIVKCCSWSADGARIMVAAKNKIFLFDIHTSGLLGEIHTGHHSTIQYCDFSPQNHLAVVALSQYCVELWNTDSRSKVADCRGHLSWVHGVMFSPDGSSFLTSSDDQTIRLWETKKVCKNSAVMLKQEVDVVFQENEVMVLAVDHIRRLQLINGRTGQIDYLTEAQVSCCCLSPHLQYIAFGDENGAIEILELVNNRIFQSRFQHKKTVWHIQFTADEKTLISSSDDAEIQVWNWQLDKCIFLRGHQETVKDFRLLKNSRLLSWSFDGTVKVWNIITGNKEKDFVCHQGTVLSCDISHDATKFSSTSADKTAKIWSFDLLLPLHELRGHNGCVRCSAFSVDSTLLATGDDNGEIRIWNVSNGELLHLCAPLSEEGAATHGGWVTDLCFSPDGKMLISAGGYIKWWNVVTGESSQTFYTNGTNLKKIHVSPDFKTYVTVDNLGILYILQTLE

[28] = molecular target: Dual specificity tyrosine-phosphorylation-regulated kinase 1A (Rattus norvegicus, UniProt Q63470); format: biochemical, Homo sapiens

CCc1oc2ccccc2c1C(=O)c1cc(Br)c(O)c(Br)c1 [BENZBROMARONE]
active: IC50 (Staphylococcus aureus) 0.131 µM | IC50 [1] 1.06 µM

N#Cc1ccc2[nH]c(O)c(-c3ccc(CN4CCOCC4)cn3)c2c1 [AZD-1080]
inactive: Ki (Aurora kinase B) > 3.16 µM | Ki [2] > 2.51 µM | Ki [3] > 10 µM | Ki [4] > 3.98 µM | Ki [5] > 5.01 µM | Ki [6] > 6.31 µM | Ki [8] > 3.16 µM | Ki [10] > 1.58 µM | Ki [11] > 10 µM | Ki [12] > 7.94 µM | Ki [13] > 2.51 µM | Ki [14] > 5.01 µM | Ki [15] > 2.51 µM | Ki [17] > 3.98 µM | Ki [18] > 2 µM | Ki [19] > 6.31 µM | Ki [21] > 2 µM | Ki [22] > 1.26 µM | Ki [23] > 2 µM | Ki [24] > 7.94 µM
active: Ki [7] 1 µM | Ki [9] 2.51 µM | Ki [16] 7.94 µM | Ki [20] 6.31 µM

O=C1C=C(N2CCOCC2)c2ccccc2C1=O
inactive: IC50 (HEK293 [26]) > 20 µM
active: IC50 (HEK293 [25]) 13.6 µM | IC50 [27] 1.27 µM | AC50 [28] 5.14 µM
